Read-outs that look alike come from different tables or passages of the source.
Key:
[1] = tested on: T-Rex 293 cell line SC3 cells having increased expression of androgen receptor protein due to exposure to doxycycline; experiment: Cellular growth inhibition assay, T-Rex 293 SC3 cells with doxycycline (CellTiter-Glo, 72 hours); format: cell-based; conditions: T-Rex 293 SC3 cells with increased androgen receptor expression due to doxycycline (10 ng/mL)
In short: (§1)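 Growth inhibition is measured in an inducible AR-expressing T-Rex 293 clone, SC3, cultured with or without 10 ng/mL doxycycline in hormone-depleted medium. Test compounds are applied for 72 hours. GI50 values derive from CellTiter-Glo 2.0 signal fitted by four-parameter regression.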

[2] = tested on: T-Rex 293 cell line SC3 cells lacking increased expression of androgen receptor protein; experiment: Cellular growth inhibition assay, T-Rex 293 SC3 cells without doxycycline (CellTiter-Glo, 72 hours); format: cell-based; conditions: T-Rex 293 cell line SC3 cells not exposed to doxycycline (lacking increased androgen receptor expression)
In short: as §1

VCaP cells = experiment: Cellular growth inhibition assay for VCaP cells (CellTiter-Glo, 72 hours); format: cell-based, human
In short: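 Luminescent viability signal after 72 h of compound exposure gave GI50 values by four-parameter nonlinear regression. Compounds were added in 0.5% DMSO to cells plated 24 h earlier at 5000/well in DMEM containing 10% FBS.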

| Compound | GI50 (VCaP cells; Homo sapiens, VCaP, 72 h) | GI50 (VCaP cells) | GI50 ([1]; 72 h) | GI50 ([2]; 72 h) | GI50 [1] | GI50 [2] |
| --- | --- | --- | --- | --- | --- | --- |
| Cc1sc2c(c1C)C(c1ccc(C3CCC4(CCN(c5ccc(C(=O)N[C@H]6CC[C@H](Oc7ccc(C#N)c(Cl)c7)CC6)nn5)CC4)C3)nc1)=N[C@@H](C)c1nnc(C)n1-2 (stereo partly drawn) [I-575] |  | > 3000 nM |  | < 500 nM | < 500 nM |  |
| Cc1sc2c(c1C)C(c1ccc(C3CCC4(CC3)CCN(c3ccc(C(=O)N[C@H]5CC[C@H](Oc6ccc(C#N)c(Cl)c6)CC5)nn3)CC4)nc1)=N[C@@H](C)c1nnc(C)n1-2 [I-630] |  | 1500 to 3000 nM | < 500 nM | < 500 nM |  |  |
| CCNC(=O)C[C@@H]1N=C(c2ccc(N(C)C3CC(OC4CCN(c5ncc(C(=O)N[C@H]6CC[C@H](Oc7ccc(C#N)c(Cl)c7)CC6)cn5)CC4)C3)cc2)c2c(sc(C)c2C)-n2c(C)nnc21 (stereo partly drawn) [I-69] | < 500 nM |  | < 500 nM | 500 to 1500 nM |  |  |
| Cc1sc2c(c1C)C(c1ccc(OCC3CC4(CCCN(c5ccc(C(=O)N[C@H]6CC[C@H](Oc7ccc(C#N)c(Cl)c7)CC6)nn5)C4)C3)nc1)=NC1(CC1)c1nnc(C)n1-2 (stereo partly drawn) [I-487] |  | < 500 nM |  |  | < 500 nM | > 3000 nM |
| Cc1sc2c(c1C)C(c1ccc(OCC3CC4(CCCN(c5ccc(C(=O)N[C@H]6CC[C@H](Oc7ccc(C#N)c(Cl)c7)CC6)nn5)C4)C3)cn1)=N[C@@H](C)c1nnc(C)n1-2 (stereo partly drawn) [I-482] | < 500 nM |  | < 500 nM | < 500 nM |  |  |
| COC[C@@H]1N=C(c2ccc(C3CCC4(CCN(c5ccc(C(=O)N[C@H]6CC[C@H](Oc7ccc(C#N)c(Cl)c7)CC6)nn5)CC4)C3)cc2)c2c(sc(C)c2C)-n2c(C)nnc21 (stereo partly drawn) [I-658] | < 500 nM |  | < 500 nM | < 500 nM |  |  |
| Cc1sc2c(c1C)C(c1ccc(C#CC3CC4(CCCN(c5ccc(C(=O)N[C@H]6CC[C@H](Oc7ccc(C#N)c(Cl)c7)CC6)nn5)C4)C3)cn1)=NC(C)c1nnc(C)n1-2 (stereo partly drawn) [I-455] |  | < 500 nM |  |  | < 500 nM | > 3000 nM |
| Cc1sc2c(c1C)C(c1ccc(N3CC4(CC(CCc5ccc(C(=O)N[C@H]6CC[C@H](Oc7ccc(C#N)c(Cl)c7)CC6)nn5)C4)C3)cc1)=N[C@@H](C)c1nnc(C)n1-2 [I-594] | 500 to 1500 nM |  | < 500 nM | 500 to 1500 nM |  |  |
| Cc1sc2c(c1C)C(c1ccc(N3CCC(CC4CCN(c5ccc(C(=O)N[C@H]6CC[C@H](Oc7ccc(C#N)c(Cl)c7)CC6)nn5)CC4)CC3)cc1)=N[C@@H](C)c1nnc(C)n1-2 [I-500] | > 3000 nM |  | < 500 nM | > 3000 nM |  |  |

Further lines, with some results ahead:

| GI50 (VCaP cells; Homo sapiens, VCaP, 72 h) | GI50 (VCaP cells) | Compound | GI50 ([1]; 72 h) | GI50 ([2]; 72 h) | GI50 [1] | GI50 [2] |
| --- | --- | --- | --- | --- | --- | --- |
| < 500 nM |  | Cc1sc2c(c1C)C(c1ccc(C3CCC4(CCCN(c5ccc(C(=O)N[C@H]6CC[C@H](Oc7ccc(C#N)c(Cl)c7)CC6)nn5)C4)CC3)cc1)=N[C@@H](C)c1nnc(C)n1-2 (stereo partly drawn) [I-673] | < 500 nM | > 3000 nM |  |  |
| < 500 nM |  | COC[C@@H]1N=C(c2ccc(CC3CC4(CCN(c5ccc(C(=O)N[C@H]6CC[C@H](Oc7ccc(C#N)c(Cl)c7)CC6)nn5)CC4)C3)cc2)c2c(sc(C)c2C)-n2c(C)nnc21 [I-692] | < 500 nM | < 500 nM |  |  |
|  | < 500 nM | Cc1sc2c(c1C)C(c1ccc(C3CCC(CC4CCN(c5ccc(C(=O)N[C@H]6CC[C@H](Oc7ccc(C#N)c(Cl)c7)CC6)nn5)CC4)CC3)cc1)=N[C@@H](C)c1nnc(C)n1-2 (stereo partly drawn) [I-765] |  |  | < 500 nM | > 3000 nM |
|  | < 500 nM | Cc1sc2c(c1C)C(c1ccc(C3CCC4(CCCN(c5ccc(C(=O)N[C@H]6CC[C@H](Oc7ccc(C#N)c(Cl)c7)CC6)nn5)C4)CC3)cc1)=N[C@@H](C)c1nnc(C)n1-2 (stereo partly drawn) [I-674] |  |  | < 500 nM | > 3000 nM |
| < 500 nM |  | Cc1sc2c(c1C)C(c1ccc(N3CC45CCCCC4(C3)CN(c3ccc(C(=O)N[C@H]4CC[C@H](Oc6ccc(C#N)c(Cl)c6)CC4)nn3)C5)cc1)=N[C@@H](C)c1nnc(C)n1-2 (stereo partly drawn) [I-766] | < 500 nM | > 3000 nM |  |  |
|  | < 500 nM | Cc1sc2c(c1C)C(c1ccc(CC3CC4(CCCN(c5ccc(C(=O)N[C@H]6CC[C@H](Oc7ccc(C#N)c(Cl)c7)CC6)nn5)C4)C3)cn1)=NC(Cc1ncco1)c1nnc(C)n1-2 (stereo partly drawn) [I-769] |  |  | > 3000 nM | > 3000 nM |
| > 3000 nM |  | Cc1sc2c(c1C)C(c1ccccc1OC1CC3(CCCN(c4ccc(C(=O)N[C@H]5CC[C@H](Oc6ccc(C#N)c(Cl)c6)CC5)nn4)C3)C1)=N[C@@H](C)c1nnc(C)n1-2 (stereo partly drawn) [I-716] | > 3000 nM | > 3000 nM |  |  |
|  | < 500 nM | Cc1sc2c(c1C)C(c1ccc(C3CCC4(CCN(c5ccc(C(=O)N[C@H]6CC[C@H](Oc7ccc(C#N)c(Cl)c7)CC6)nn5)CC4)C3)nc1)=NC1(CC1)c1nnc(C)n1-2 (stereo partly drawn) [I-738] |  |  | < 500 nM | > 3000 nM |

From patent publication US20260109707A1, “HETEROBIFUNCTIONAL COMPOUNDS AND METHODS OF TREATING DISEASE” (Halda Therapeutics OpCo. Inc., priority 2022, published 2026)
